Assay: xn = mol fraction of the nth substance listed
Details: 100 kPa, Liquid; for viscosity: Falling or rolling sphere viscometry; for mass density: Vibrating tube method

CC[N+]1(C)CCCC1.O=C([O-])CO [1-ethyl-1-methylpyrrolidinium glycolate] + O
Details	mass density [kg/m3]	viscosity [mPa·s]
298.15 K, x1 = 0.0541	1057.7	–
298.15 K, x1 = 0.1293	1100.6	11.8
298.15 K, x1 = 0.2024	1118.3	25.2
298.15 K, x1 = 0.2905	1127.2	46.2
298.15 K, x1 = 0.3464	1130	61.1
298.15 K, x1 = 0.4258	1132.3	84
298.15 K, x1 = 0.5357	1133.9	119
298.15 K, x1 = 0.6086	1134.3	145
298.15 K, x1 = 0.729	1134.7	195
298.15 K, x1 = 0.825	1134.5	241
298.15 K, x1 = 0.8839	1134.3	271
303.15 K, x1 = 0.0541	1055.1	–
303.15 K, x1 = 0.1293	1097.2	9.63
303.15 K, x1 = 0.2024	1114.7	19.9
303.15 K, x1 = 0.2905	1123.6	37.2
303.15 K, x1 = 0.3464	1126.5	48.2
303.15 K, x1 = 0.4258	1128.8	65
303.15 K, x1 = 0.5357	1130.4	90.6
303.15 K, x1 = 0.6086	1130.9	110
303.15 K, x1 = 0.729	1131.3	146
303.15 K, x1 = 0.825	1131.1	179
303.15 K, x1 = 0.8839	1130.9	200
308.15 K, x1 = 0.0541	1052.3	–
308.15 K, x1 = 0.1293	1093.7	8
308.15 K, x1 = 0.2024	1111.2	16.5
308.15 K, x1 = 0.2905	1120.1	30
308.15 K, x1 = 0.3464	1123	38.3
308.15 K, x1 = 0.4258	1125.4	51.4
308.15 K, x1 = 0.5357	1127	70.8
308.15 K, x1 = 0.6086	1127.5	85.4
308.15 K, x1 = 0.729	1127.9	112
308.15 K, x1 = 0.825	1127.7	137
308.15 K, x1 = 0.8839	1127.6	152
313.15 K, x1 = 0.0541	1049.5	–
313.15 K, x1 = 0.1293	1090.3	6.75
313.15 K, x1 = 0.2024	1107.6	13.5
313.15 K, x1 = 0.2905	1116.6	23.5
313.15 K, x1 = 0.3464	1119.5	30.5
313.15 K, x1 = 0.4258	1121.9	41.3
313.15 K, x1 = 0.5357	1123.6	56.4
313.15 K, x1 = 0.6086	1124.1	67.6
313.15 K, x1 = 0.729	1124.6	87.7
313.15 K, x1 = 0.825	1124.4	106
313.15 K, x1 = 0.8839	1124.3	119
318.15 K, x1 = 0.0541	1046.6	–
318.15 K, x1 = 0.1293	1086.8	5.69
318.15 K, x1 = 0.2024	1104	11.6
318.15 K, x1 = 0.2905	1113.1	20
318.15 K, x1 = 0.3464	1116	25.4
318.15 K, x1 = 0.4258	1118.5	33.8
318.15 K, x1 = 0.5357	1120.3	45.7
318.15 K, x1 = 0.6086	1120.8	54.2
318.15 K, x1 = 0.729	1121.3	70
318.15 K, x1 = 0.825	1121.1	83.6
318.15 K, x1 = 0.8839	1121	92.8
323.15 K, x1 = 0.0541	1043.7	–
323.15 K, x1 = 0.1293	1083.3	4.85
323.15 K, x1 = 0.2024	1100.4	9.82
323.15 K, x1 = 0.2905	1109.6	16.4
323.15 K, x1 = 0.3464	1112.6	20.9
323.15 K, x1 = 0.4258	1115.2	27.7
323.15 K, x1 = 0.5357	1116.9	37.5
323.15 K, x1 = 0.6086	1117.5	44.5
323.15 K, x1 = 0.729	1118	56.6
323.15 K, x1 = 0.825	1117.9	67
323.15 K, x1 = 0.8839	1117.7	74.6
328.15 K, x1 = 0.0541	1040.6	–
328.15 K, x1 = 0.1293	1079.8	4.34
328.15 K, x1 = 0.2024	1096.8	8.55
328.15 K, x1 = 0.2905	1106.1	13.9
328.15 K, x1 = 0.3464	1109.2	17.8
328.15 K, x1 = 0.4258	1111.8	23.3
328.15 K, x1 = 0.5357	1113.6	31.4
328.15 K, x1 = 0.6086	1114.2	37.2
328.15 K, x1 = 0.729	1114.8	46.8
328.15 K, x1 = 0.825	1114.6	55.7
328.15 K, x1 = 0.8839	1114.5	61.9
333.15 K, x1 = 0.0541	1037.5	–
333.15 K, x1 = 0.1293	1076.2	4.12
333.15 K, x1 = 0.2024	1093.3	7.54
333.15 K, x1 = 0.2905	1102.6	12.5
333.15 K, x1 = 0.3464	1105.7	15.5
333.15 K, x1 = 0.4258	1108.5	20
333.15 K, x1 = 0.5357	1110.4	26.5
333.15 K, x1 = 0.6086	1111	31.1
333.15 K, x1 = 0.729	1111.5	38.8
333.15 K, x1 = 0.825	1111.4	45.5
333.15 K, x1 = 0.8839	1111.3	49.9
338.15 K, x1 = 0.0541	1034.3	–
338.15 K, x1 = 0.1293	1072.7	3.87
338.15 K, x1 = 0.2024	1089.7	6.81
338.15 K, x1 = 0.2905	1099.2	10.6
338.15 K, x1 = 0.3464	1102.4	13.2
338.15 K, x1 = 0.4258	1105.1	16.8
338.15 K, x1 = 0.5357	1107.1	22.4
338.15 K, x1 = 0.6086	1107.7	26.1
338.15 K, x1 = 0.729	1108.3	32.6
338.15 K, x1 = 0.825	1108.3	38.1
338.15 K, x1 = 0.8839	1108.2	41.6
343.15 K, x1 = 0.0541	1031.1	–
343.15 K, x1 = 0.1293	1069.1	3.58
343.15 K, x1 = 0.2024	1086.1	5.96
343.15 K, x1 = 0.2905	1095.7	9.03
343.15 K, x1 = 0.3464	1099	11.2
343.15 K, x1 = 0.4258	1101.8	14.5
343.15 K, x1 = 0.5357	1103.9	19.2
343.15 K, x1 = 0.6086	1104.6	22.4
343.15 K, x1 = 0.729	1105.2	27.9
343.15 K, x1 = 0.825	1105.1	32.4
343.15 K, x1 = 0.8839	1105.1	35.3
348.15 K, x1 = 0.0541	1027.6	–
348.15 K, x1 = 0.1293	1065.5	3.55
348.15 K, x1 = 0.2024	1082.6	5.64
348.15 K, x1 = 0.2905	1092.9	7.83
348.15 K, x1 = 0.3464	1095.6	9.71
348.15 K, x1 = 0.4258	1098.6	12.5
348.15 K, x1 = 0.5357	1100.7	16.6
348.15 K, x1 = 0.6086	1101.4	19.3
348.15 K, x1 = 0.729	1102.1	24
348.15 K, x1 = 0.825	1102	27.7
348.15 K, x1 = 0.8839	1102	30.1
